{
  "source": "patent US7550506B2",
  "about": "“Amino acid derived prodrugs of propofol, compositions and uses thereof” (XenoPort, Inc., priority 2004, dated 2009)",
  "key": {"[1]": {"details": "substrate 2.0 μM, 37° C.; for % of Propofol Released from Propofol Prodrugs after 60 min, Human Plasma: no cofactors; for % of Propofol Released from Propofol Prodrugs after 60 min, Human Liver S9 (0.5 mg/mL): NADPH", "description": "(§1) The stability of propofol prodrugs were evaluated in one or more in vitro systems using a variety of tissue preparations following methods known in the art. Tissues were obtained from commercial sources (e.g., Pel-Freez Biologicals, Rogers, Ark., or GenTest Corporation, Woburn, Mass.). Experimental conditions used for the in vitro studies are described in Table 1 below. Each preparation was incubated with test compound at 37° C. for one hour. Aliquots (50 μL) were removed at 0, 30, and 60 min and quenched with 0.1% trifluoroacetic acid in acetonitrile. Samples were then centrifuged and analyzed by LC/MS/MS (see Example 134 below for method details). Stability of drug conjugates towards specific enzymes (e.g., peptidases, etc.) were also assessed in vitro by incubation with the purified enzyme."}, "[2]": {"assay": "Caco-2 homogenate S9 stability", "type": "in vitro ADME", "details": "Caco-2 homogenate S9 0.5 mg protein per mL, substrate 5.0 μM, 37° C.", "description": "Caco-2 Homogenate S9 Stability: Caco-2 cells were grown for 21 days prior to harvesting. Culture medium was removed and cell monolayers were rinsed and scraped off into ice-cold 10 mM sodium phosphate/0.15 M potassium chloride, pH 7.4. Cells were lysed by sonication at 4° C. using a probe sonicator. Lysed cells were then transferred into 1.5 mL centrifuge vials and centrifuged at 9000 g for 20 min at 4° C. The resulting supernatant (Caco-2 cell homogenate S9 fraction) was aliquoted into 0.5 mL vials and stored at −80° C. until used.\nFor stability studies, prodrug (5 μM) was incubated in Caco-2 homogenate S9 fraction (0.5 mg protein per mL) for 60 min at 37° C. Concentrations of intact prodrug and released propofol were determined at zero time and 60 minutes using LC/MS/MS."}, "pancreatin": {"system": "pancreatin", "details": "1% (w/v) pancreatin, substrate 5.0 μM, pH 7.5, 37° C.", "description": "as §1\nPancreatin Stability: Stability studies were conducted by incubating conjugate (5 μM) with 1% (w/v) pancreatin (Sigma, P-1625, from porcine pancreas) in 0.025 M Tris buffer containing 0.5 M NaCl (pH 7.5) at 37° C. for 60 min. The reaction was stopped by addition of 2 volumes of methanol. After centrifugation at 14,000 rpm for 10 min, the supernatant was removed and analyzed by LC/MS/MS."}, "[3]": {"details": "oral dosing in rats (Raoof et al. 1996); cited from earlier work"}},
  "data": [
    {"compound": "CC(C)c1cccc(C(C)C)c1OC(=O)OC(C)C(NC(=O)CN)C(=O)O", "note": "(stereo not shown) [(10), H-Gly-Thr(γ-OC(O)OPropofol)-OH]", "values": [
      {"measurement": "% of Propofol Released from Propofol Prodrugs after 60 min, Human Plasma", "setting": "[1]", "value": 2, "unit": "%"},
      {"measurement": "% of Propofol Released from Propofol Prodrugs after 60 min, Human Liver S9 (0.5 mg/mL)", "setting": "[1]", "value": 2, "unit": "%"},
      {"measurement": "% of Propofol Released from Propofol Prodrugs after 60 min, Caco-2 S9", "setting": "[2]", "value": 30, "unit": "%"},
      {"measurement": "% of Propofol Released from Propofol Prodrugs after 60 min, Pancreatin", "setting": "pancreatin", "value": 43, "unit": "%"}
    ]},
    {"compound": "H-Ala-Thr(γ-OC(O)OPropofol)-OH Hydrochloride [(16)]", "values": [
      {"measurement": "% of Propofol Released from Propofol Prodrugs after 60 min, Caco-2 S9", "setting": "[2]", "value": 33, "unit": "%"}
    ]},
    {"compound": "CC(C)c1cccc(C(C)C)c1OC(=O)OC(C)C(NC(=O)C(N)CCCN=C(N)N)C(=O)O.Cl.Cl.Cl", "note": "(stereo not shown) [(23), H-Arp-Thr(γ-OC(O)OPropofol)-OH Tris-Hydrochloride]", "values": [
      {"measurement": "% of Propofol Released from Propofol Prodrugs after 60 min, Human Plasma", "setting": "[1]", "value": 25, "unit": "%"},
      {"measurement": "% of Propofol Released from Propofol Prodrugs after 60 min, Human Liver S9 (0.5 mg/mL)", "setting": "[1]", "value": 93, "unit": "%"},
      {"measurement": "% of Propofol Released from Propofol Prodrugs after 60 min, Caco-2 S9", "setting": "[2]", "value": 100, "unit": "%"},
      {"measurement": "% of Propofol Released from Propofol Prodrugs after 60 min, Pancreatin", "setting": "pancreatin", "value": 4, "unit": "%"}
    ]},
    {"compound": "CC(C)c1cccc(C(C)C)c1OC(=O)OC(C)C(NC(=O)C(N)CN)C(=O)O.Cl.Cl", "note": "(stereo not shown) [(24), H-Dap-Thr(γ-OC(O)OPropofol)-OH Bis-Hydrochloride]", "values": [
      {"measurement": "% of Propofol Released from Propofol Prodrugs after 60 min, Human Plasma", "setting": "[1]", "value": 0, "unit": "%"},
      {"measurement": "% of Propofol Released from Propofol Prodrugs after 60 min, Human Liver S9 (0.5 mg/mL)", "setting": "[1]", "value": 1, "unit": "%"},
      {"measurement": "% of Propofol Released from Propofol Prodrugs after 60 min, Caco-2 S9", "setting": "[2]", "value": 21, "unit": "%"},
      {"measurement": "% of Propofol Released from Propofol Prodrugs after 60 min, Pancreatin", "setting": "pancreatin", "value": 0, "unit": "%"}
    ]},
    {"compound": "CC(C)c1cccc(C(C)C)c1O", "note": "[propofol, 2,6-diisopropylphenol]", "values": [
      {"measurement": "Share of the administered drug that undergoes first pass metabolism", "setting": "[3]", "value": "approximately 90%"}
    ]},
    {"compound": "CC(C)CC(N)C(=O)NC(C(=O)O)C(C)OC(=O)Oc1c(C(C)C)cccc1C(C)C.Cl", "note": "(stereo not shown) [(26), H-Leu-Thr(γ-OC(O)OPropofol)-OH Hydrochloride]", "values": [
      {"measurement": "% of Propofol Released from Propofol Prodrugs after 60 min, Human Plasma", "setting": "[1]", "value": 0, "unit": "%"},
      {"measurement": "% of Propofol Released from Propofol Prodrugs after 60 min, Human Liver S9 (0.5 mg/mL)", "setting": "[1]", "value": 37, "unit": "%"},
      {"measurement": "% of Propofol Released from Propofol Prodrugs after 60 min, Caco-2 S9", "setting": "[2]", "value": 93, "unit": "%"},
      {"measurement": "% of Propofol Released from Propofol Prodrugs after 60 min, Pancreatin", "setting": "pancreatin", "value": 30, "unit": "%"}
    ]},
    {"compound": "CC(C)c1cccc(C(C)C)c1OC(=O)OC(C)C(NC(=O)C(N)Cc1cnc[nH]1)C(=O)O.Cl.Cl", "note": "(stereo not shown) [(25), H-His-Thr(γ-OC(O)OPropofol)-OH Bis-Hydrochloride]", "values": [
      {"measurement": "% of Propofol Released from Propofol Prodrugs after 60 min, Human Plasma", "setting": "[1]", "value": 0, "unit": "%"},
      {"measurement": "% of Propofol Released from Propofol Prodrugs after 60 min, Human Liver S9 (0.5 mg/mL)", "setting": "[1]", "value": 8, "unit": "%"},
      {"measurement": "% of Propofol Released from Propofol Prodrugs after 60 min, Caco-2 S9", "setting": "[2]", "value": 52, "unit": "%"},
      {"measurement": "% of Propofol Released from Propofol Prodrugs after 60 min, Pancreatin", "setting": "pancreatin", "value": 0, "unit": "%"}
    ]},
    {"compound": "CC(C)c1cccc(C(C)C)c1OC(=O)OC(C)C(NC(=O)C(N)CCCN)C(=O)O.Cl.Cl", "note": "(stereo not shown) [(28), H-Orn-Thr(γ-OC(O)OPropofol)-OH Bis-Hydrochloride]", "values": [
      {"measurement": "% of Propofol Released from Propofol Prodrugs after 60 min, Human Plasma", "setting": "[1]", "value": 2, "unit": "%"},
      {"measurement": "% of Propofol Released from Propofol Prodrugs after 60 min, Human Liver S9 (0.5 mg/mL)", "setting": "[1]", "value": 11, "unit": "%"},
      {"measurement": "% of Propofol Released from Propofol Prodrugs after 60 min, Caco-2 S9", "setting": "[2]", "value": 54, "unit": "%"},
      {"measurement": "% of Propofol Released from Propofol Prodrugs after 60 min, Pancreatin", "setting": "pancreatin", "value": 0, "unit": "%"}
    ]},
    {"compound": "CC(C)c1cccc(C(C)C)c1OC(=O)OC(C)C(NC(=O)C(N)CCCCN)C(=O)O.Cl.Cl", "note": "(stereo not shown) [(18), H-Lys-Thr(γ-OC(O)OPropofol)-OH Bis-Hydrochloride]", "values": [
      {"measurement": "% of Propofol Released from Propofol Prodrugs after 60 min, Human Plasma", "setting": "[1]", "value": 12, "unit": "%"},
      {"measurement": "% of Propofol Released from Propofol Prodrugs after 60 min, Human Liver S9 (0.5 mg/mL)", "setting": "[1]", "value": 32, "unit": "%"},
      {"measurement": "% of Propofol Released from Propofol Prodrugs after 60 min, Caco-2 S9", "setting": "[2]", "value": 33, "unit": "%"},
      {"measurement": "% of Propofol Released from Propofol Prodrugs after 60 min, Pancreatin", "setting": "pancreatin", "value": 1, "unit": "%"}
    ]},
    {"compound": "CSCCC(N)C(=O)NC(C(=O)O)C(C)OC(=O)Oc1c(C(C)C)cccc1C(C)C.Cl", "note": "(stereo not shown) [(27), H-Met-Thr(γ-OC(O)OPropofol)-OH Hydrochloride]", "values": [
      {"measurement": "% of Propofol Released from Propofol Prodrugs after 60 min, Human Plasma", "setting": "[1]", "value": 0, "unit": "%"},
      {"measurement": "% of Propofol Released from Propofol Prodrugs after 60 min, Human Liver S9 (0.5 mg/mL)", "setting": "[1]", "value": 0, "unit": "%"},
      {"measurement": "% of Propofol Released from Propofol Prodrugs after 60 min, Caco-2 S9", "setting": "[2]", "value": 20, "unit": "%"},
      {"measurement": "% of Propofol Released from Propofol Prodrugs after 60 min, Pancreatin", "setting": "pancreatin", "value": 0, "unit": "%"}
    ]}
  ]
}
